Laboratory results reported in patent US9011589B2, “Magenta dyes and their preparation methods and applications” (Dalian University of Technology, priority 2012, dated 2015).

Columns and labels:
Format in all cases: physicochemical
[1] = Light resistance test of printed images with xenon lamp; conditions: grade of color difference ΔE; ink with 6 parts dye on glossy photo paper; xenon lamp 0.36 W/m^2, 60% RH, 24° C., 50 h
Source text: Prepare the ink composition according to the formula described in Table 1 containing the products obtained in the above embodiment as the magenta colorant, and filter the ink composition with a […] membrane filter to obtain the aqueous magenta ink composition of the present invention. Add triethanolamine to adjust the ink composition pH to 8˜10 and add deionized water to make the total volume to reach 100 parts by weight.
Use an ink-jet printer (Epson 270 manufactured by Epson Company), glossy photo paper (Epson) and the above described ink compositions for ink-jet printing.
Irradiate the printed glossy photo paper manufactured by Canon and Epson with Xenon-lamp Weathering Test Chamber ZG-P (manufactured by China Surui Company) at 60% RH and 24° C. with illuminance of 0.36 W/m^2 for 50 h, and check the color difference (ΔE) before and after the test. The color difference (ΔE) is calculated from the differences of values of L*, a*, b* before and after the test in the above described color measurement system (Unterlab) by the followings formula: ΔE=((difference of L*)^2+(difference of a*)^2+(difference of b*)^2)^1/2.
Three grades will be divided for the evaluation based on the following benchmark: […]

[2] = Gas (ozone) resistance of the printed images; conditions: grade of color difference ΔE; 40 ppm ozone, 60% RH, 24° C., 6 h
Source text: Prepare the ink composition according to the formula described in Table 1 containing the products obtained in the above embodiment as the magenta colorant, and filter the ink composition with a […] membrane filter to obtain the aqueous magenta ink composition of the present invention. Add triethanolamine to adjust the ink composition pH to 8˜10 and add deionized water to make the total volume to reach 100 parts by weight. Use an ink-jet printer (Epson 270 manufactured by Epson Company), glossy photo paper (Epson) and the above described ink compositions for ink-jet printing. Place the printed images in the Ozone Weathering Test Chamber (manufactured by China Surui Company) at 40 ppm ozone, 60% RH and 24° C. for 6 h. Calculate the color difference (ΔE) before and after the test in the same manner as described in (1) above and evaluate it in 3 grades based on the following benchmark: [table]

[3] = Evaluation of water solubility of the dye; conditions: solubility of the dye in water
Source text: (D) Evaluation of Water Solubility of the Dye (g/100 g Water)

[4] = Evaluation of long-term stability of the dye in aqueous solvent systems; set-up: key: ∘: No precipitation; Δ: Slight precipitation; x: Notable; conditions: 20 parts dye, 70 parts water, 10 parts ethylene glycol; 50° C. 7 d, then 0° C. 7 d; precipitation on filtering
Procedure: Heat and dissolve the system consisting of 20 parts of dyes, 70 parts of water and 10 parts of ethylene glycol; after the solution cools down, store it airtight at a constant temperature of 50° C. for 7 d; cool it to 0° C. and store it at the same temperature for 7 d; filter the solution and evaluate it in 3 grades based on the following benchmark: […]

Compound	UV resistance of printed images [1]	Ozone resistance of printed images [2]	Water solubility of the dye [3]	Long-term stability of the dye in aqueous solvent systems [4]
O=S(=O)([O-])c1cc(Nc2nc(Nc3ccc(/C=C/c4ccc(Nc5nc(Nc6cc(S(=O)(=O)[O-])cc7cc(S(=O)(=O)[O-])c(N=Nc8ccccc8)c(O)c67)nc(N6CCOCC6)n5)cc4S(=O)(=O)[O-])c(S(=O)(=O)[O-])c3)nc(N3CCOCC3)n2)c2c(O)c(N=Nc3ccccc3)c(S(=O)(=O)[O-])cc2c1.[Na+].[Na+].[Na+].[Na+].[Na+].[Na+] [C.I. direct red 227, reference compound]	x (ΔE > 20)	x (ΔE > 20)	x (The solubility of the dye in water <15)	Δ
O=C([O-])CCCS(=O)(=O)c1ccc(S(=O)(=O)[O-])c(Nc2cc(S(=O)(=O)[O-])c3[nH]c(=O)c(C(=O)OCc4ccccc4)c4c3c2C(=O)c2ccccc2-4)c1.[Na+].[Na+].[Na+] [Dm3]	∘ (ΔE < 10)	∘ (ΔE < 10)	∘ (The solubility of the dye in water >30)	∘
Cn1c(=O)c(C(=O)OCc2cccc3ccccc23)c2c3c(c(Nc4ccc(S(=O)(=O)[O-])cc4S(=O)(=O)[O-])ccc31)C(=O)c1ccccc1-2.[Na+].[Na+] [Dye2, reference compound]	∘ (ΔE < 10)	∘ (ΔE < 10)	Δ (The solubility of the dye in water >15-20)	Δ
O=C(Nc1cc(S(=O)(=O)[O-])cc2cc(S(=O)(=O)[O-])c(N=Nc3ccc4cc(S(=O)(=O)CCOS(=O)(=O)[O-])ccc4c3S(=O)(=O)[O-])c(O)c12)c1ccccc1.[Na+].[Na+].[Na+].[Na+] [C.I. reactive red 180, reference compound]	x (ΔE > 20)	x (ΔE > 20)		Δ
O=C([O-])CCCS(=O)(=O)c1cc(S(=O)(=O)[O-])c(Nc2cc(S(=O)(=O)[O-])c3[nH]c(=O)c(C(=O)[O-])c4c3c2C(=O)c2ccccc2-4)c(S(=O)(=O)[O-])c1.[Na+].[Na+].[Na+].[Na+].[Na+] [Dp2]	∘ (ΔE < 10)	∘ (ΔE < 10)	∘ (The solubility of the dye in water >30)	∘
O=C([O-])CCCS(=O)(=O)c1cc(S(=O)(=O)[O-])c(Nc2cc(S(=O)(=O)[O-])c3[nH]c(=O)c(C(=O)OCc4cccc(Cl)c4)c4c3c2C(=O)c2ccccc2-4)c(S(=O)(=O)[O-])c1.[Na+].[Na+].[Na+].[Na+] [Dp10]	∘ (ΔE < 10)	∘ (ΔE < 10)	∘ (The solubility of the dye in water >30)	∘
O=C([O-])CCCS(=O)(=O)c1cc(S(=O)(=O)[O-])c(Nc2cc(S(=O)(=O)[O-])c3[nH]c(=O)c(C(=O)OCc4cccc5ccccc45)c4c3c2C(=O)c2ccccc2-4)c(S(=O)(=O)[O-])c1.[Na+].[Na+].[Na+].[Na+] [Dp17]	∘ (ΔE < 10)	∘ (ΔE < 10)	Δ (The solubility of the dye in water >15-20)	∘
O=C([O-])CCCS(=O)(=O)c1ccc(S(=O)(=O)[O-])c(Nc2cc(S(=O)(=O)[O-])c3[nH]c(=O)c(C(=O)[O-])c4c3c2C(=O)c2ccccc2-4)c1.[Na+].[Na+].[Na+].[Na+] [Dm1]	∘ (ΔE < 10)	∘ (ΔE < 10)	∘ (The solubility of the dye in water >30)	∘
O=C([O-])CCCS(=O)(=O)c1ccc(S(=O)(=O)[O-])c(Nc2cc(S(=O)(=O)[O-])c3[nH]c(=O)c(C(=O)OCc4cccc([N+](=O)[O-])c4)c4c3c2C(=O)c2ccccc2-4)c1.[Na+].[Na+].[Na+] [Dm7]	∘ (ΔE < 10)	∘ (ΔE < 10)	∘ (The solubility of the dye in water >30)	∘
O=C([O-])CCCS(=O)(=O)c1cc(S(=O)(=O)[O-])c(Nc2cc(S(=O)(=O)[O-])c3[nH]c(=O)c(C(=O)OCc4cccc(S(=O)(=O)[O-])c4)c4c3c2C(=O)c2ccccc2-4)c(S(=O)(=O)[O-])c1.[Na+].[Na+].[Na+].[Na+].[Na+] [Dp14]	∘ (ΔE < 10)	∘ (ΔE < 10)	∘ (The solubility of the dye in water >30)	∘
Cc1ccc(COC(=O)c2c3c4c(c(Nc5cc(S(=O)(=O)CCCC(=O)[O-])ccc5S(=O)(=O)[O-])cc(S(=O)(=O)[O-])c4[nH]c2=O)C(=O)c2ccccc2-3)cc1.[Na+].[Na+].[Na+] [Dm5]	∘ (ΔE < 10)	∘ (ΔE < 10)	∘ (The solubility of the dye in water >30)	∘
O=C([O-])CCCS(=O)(=O)c1cc(S(=O)(=O)[O-])c(Nc2cc(S(=O)(=O)[O-])c3[nH]c(=O)c(C(=O)OCc4ccccc4)c4c3c2C(=O)c2ccccc2-4)c(S(=O)(=O)[O-])c1.[Na+].[Na+].[Na+].[Na+] [Dp4]	∘ (ΔE < 10)	∘ (ΔE < 10)	∘ (The solubility of the dye in water >30)	∘
